Data published in US20230115176A1 (Ra Pharmaceuticals, Inc., priority 2019, published 2023).
Converted amounts (≈) assume the structure as drawn.

What was measured:
[1] = Kinetic solubility in PBS pH 7.4, HPLC-UV (Example 21, Table 27); assay type: physicochemical; details: phosphate buffered saline, aqueous buffer, kinetic from dmso stock, 0.5 M PBS, shaken minimum 24 h at approximately 25° C., HPLC-UV 270 nm
In short: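 10 mM DMSO stock diluted into 0.05 M PBS pH 7.4 (5% DMSO final), in triplicate, shaken ≥24 h at ~25 °C, then filtered by centrifugation. Supernatant concentration by HPLC-UV at 270 nm against external DMSO standards (15.6–500.0 μM).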

[2] = target: human C5 complement protein (Homo sapiens, UniProt P01031); experiment: Surface plasmon resonance (SPR), immobilized human C5, 37° C. (Example 18, Table 24); assay type: binding; details: lowest value obtained where a range of concentrations was analyzed
Human C5 = target: T1, Human C5 (Homo sapiens, UniProt P01031); experiment: Red blood cell (RBC) hemolysis assay, luminescent (Example 24, Table 29); assay type: cell-based; details: sheep EA cells, […] C5-depleted human serum, 0.5 nM human C5, 1 hour at 37° C., luminescence (Table 29)
T1 construct: purchased Complement Technology
Description: Numbers in parenthesis following the compound number indicate alternate enantiomers (as distinguished by retention time during chromatographical separation).

human C5 complement protein, sequence (P01031 19-1676): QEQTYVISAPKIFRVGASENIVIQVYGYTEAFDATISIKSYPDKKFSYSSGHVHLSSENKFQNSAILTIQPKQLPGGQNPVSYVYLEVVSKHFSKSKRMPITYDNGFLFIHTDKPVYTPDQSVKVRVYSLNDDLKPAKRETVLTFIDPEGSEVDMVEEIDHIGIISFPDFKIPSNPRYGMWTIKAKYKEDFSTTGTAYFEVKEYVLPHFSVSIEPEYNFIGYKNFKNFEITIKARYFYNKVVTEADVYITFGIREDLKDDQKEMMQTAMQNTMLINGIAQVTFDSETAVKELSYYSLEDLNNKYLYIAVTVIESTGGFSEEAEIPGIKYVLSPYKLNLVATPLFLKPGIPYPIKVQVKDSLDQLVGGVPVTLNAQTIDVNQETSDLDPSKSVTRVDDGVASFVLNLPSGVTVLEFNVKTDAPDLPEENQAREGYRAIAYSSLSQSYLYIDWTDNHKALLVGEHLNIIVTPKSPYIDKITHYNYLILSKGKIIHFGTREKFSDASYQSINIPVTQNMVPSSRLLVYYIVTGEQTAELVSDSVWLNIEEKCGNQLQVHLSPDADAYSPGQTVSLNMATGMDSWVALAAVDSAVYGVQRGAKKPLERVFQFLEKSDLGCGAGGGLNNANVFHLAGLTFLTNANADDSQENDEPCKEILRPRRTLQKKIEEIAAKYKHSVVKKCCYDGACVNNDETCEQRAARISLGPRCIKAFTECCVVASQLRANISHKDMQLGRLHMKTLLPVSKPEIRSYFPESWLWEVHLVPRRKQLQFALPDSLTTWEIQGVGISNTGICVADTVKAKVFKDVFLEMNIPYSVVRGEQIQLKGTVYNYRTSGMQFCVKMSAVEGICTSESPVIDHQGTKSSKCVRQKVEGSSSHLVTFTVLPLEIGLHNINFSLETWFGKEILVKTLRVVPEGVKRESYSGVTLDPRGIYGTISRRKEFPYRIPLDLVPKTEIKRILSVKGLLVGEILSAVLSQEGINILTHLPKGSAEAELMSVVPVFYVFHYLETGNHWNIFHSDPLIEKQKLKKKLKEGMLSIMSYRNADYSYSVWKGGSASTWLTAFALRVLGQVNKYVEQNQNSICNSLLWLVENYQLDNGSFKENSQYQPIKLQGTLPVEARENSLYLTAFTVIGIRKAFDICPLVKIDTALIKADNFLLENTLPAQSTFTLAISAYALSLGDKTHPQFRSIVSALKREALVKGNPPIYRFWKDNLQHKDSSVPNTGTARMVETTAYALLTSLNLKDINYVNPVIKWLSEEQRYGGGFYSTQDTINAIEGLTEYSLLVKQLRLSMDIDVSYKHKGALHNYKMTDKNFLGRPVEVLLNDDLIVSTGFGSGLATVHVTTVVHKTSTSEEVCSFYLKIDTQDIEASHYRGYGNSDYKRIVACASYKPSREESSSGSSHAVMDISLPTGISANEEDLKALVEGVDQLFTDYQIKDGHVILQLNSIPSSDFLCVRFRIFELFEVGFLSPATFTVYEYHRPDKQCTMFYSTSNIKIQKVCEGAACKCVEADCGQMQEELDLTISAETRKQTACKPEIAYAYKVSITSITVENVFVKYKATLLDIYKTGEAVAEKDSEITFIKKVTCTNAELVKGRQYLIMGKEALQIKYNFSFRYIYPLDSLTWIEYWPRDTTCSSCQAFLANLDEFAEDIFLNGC
T1 sequence (P01031 19-1676): as above

Structure (SMILES)	solubility kinetic [1] [µM]	Kd [2] [nM]	IC50 (Human C5) [nM]
COc1ccc(N2CCCN(Cc3cccc4c3c(Cl)cn4CC(=O)N(C)C)C2=O)cc1OCCC[C@H]1C[C@H]1C (racemic) [CU0515]	< 10	0.32	–
COc1ccc(N2CCCN(Cc3cccc4c3ccn4CC(=O)N(C)C)C2=O)cc1OCCC[C@H]1C[C@@H]1C (racemic) [CU0681]	–	2.19	–
COc1ccc(N2CCCN(Cc3ccnc4c3ccn4CC(=O)N(C)C)C2=O)cc1OCCC[C@H]1C[C@H]1C (racemic) [CU0737]	–	8.1	–
CCCCCOc1cc(N2CCCN(Cc3ccnc4c3c(Cl)cn4CC(=O)NOC)C2=O)ccc1OC [CU0500]	10 (≈ 5.44 µg/mL)	1.2	–
COc1ccc(N2CCCN(Cc3ccnc4c3c(Cl)cn4CC(=O)N(C)C)C2=O)cc1OCCCC(F)(F)C(F)(F)F [CU0502]	–	0.32	–
CCCCCOc1cc(N2CCCN(Cc3ccnc4c3c(Cl)cn4CC(=O)N3CCCC3)C2=O)ccc1OC [CU0541]	61 (≈ 34.7 µg/mL)	0.31	–
COc1cc(CC(=O)N2CCNC(=O)C2)ccc1CN1CCCN(c2ccc(OC)c(OCCCC3CC3)c2)C1=O [CU0562]	480 (≈ 271 µg/mL)	0.498	–
COc1cc(CNC(=O)c2cocn2)ccc1CN1CCCN(c2ccc(OC)c(OCCCCC3CC3)c2)C1=O [CU0571]	–	0.481	–
CCCCCOc1cc(N2CCCN(Cc3ccnc4c3c(Cl)cn4CC(=O)NO)C2=O)ccc1OC [CU0575]	–	0.304	–
COc1cc(CC(=O)N2CCOCC2)ccc1CN1CCCN(c2ccc(OC)c(OCCCCC3CC3)c2)C1=O [CU0598]	< 10	0.747	–
COc1cc(CNC(C)=O)ccc1CN1CCCN(c2ccc(OC)c(OCCCCC3CC3)c2)C1=O [CU0613]	190 (≈ 96.8 µg/mL)	0.533	–
CCCCCOc1cc(N2CCCN(Cc3ccc(CNC4CCN(C)C4=O)cc3OC)C2=O)ccc1OC (centres unmarked) [CU0626]	–	1.04	–
CCCCCOc1cc(N2CCCN(Cc3ccc(CC(=O)N4CCCC4C)cc3OC)C2=O)ccc1OC (centres unmarked) [CU0632]	–	0.88	–
CCCCCOc1cc(N2CCCN(Cc3cccc4c3ccn4[C@H]3CCN(C)C3=O)C2=O)ccc1OC [CU0644]	450 (≈ 233 µg/mL)	1.11	–
COc1cc(CN)ccc1CN1CCCN(c2ccc(OC)c(OCCCC3CC3)c2)C1=O [CU0657]	–	1.32	–
COc1cc(CCN2CCCC2)ccc1CN1CCCN(c2ccc(OC)c(OCCCC3CC3)c2)C1=O [CU0662]	–	1.15	–
COc1cc(CCNC(C)=O)ccc1CN1CCCN(c2ccc(OC)c(OCCCC3CC3)c2)C1=O [CU0668]	–	2.53	–
COc1cc(CN)ccc1CN1CCCN(c2ccc(OC)c(OCCCCC3CC3)c2)C1=O [CU0686]	–	0.618	–

Structure (SMILES)	solubility kinetic [1] [µM]	Kd [2] [nM]	IC50 (Human C5) [nM]
CCCCCOc1cc(N2CCCN(Cc3ccc(CCN4[C@H](C)CC[C@@H]4C)cc3OC)C2=O)ccc1OC [CU0690]	–	1.69	–
CCCCCOc1cc(N2CCCN(Cc3ccc(CCNC(C)=O)cc3OC)C2=O)ccc1OC [CU0695]	–	1.35	–
CCCCCOc1cc(N2CCCN(Cc3ccc(CCNC=O)cc3OC)C2=O)ccc1OC [CU0704]	–	2.32	–
CCCCCOc1cc(N2CC[C@H](C)N(Cc3cccc4c3ccn4CC(=O)N3CCCC3)C2=O)ccc1OC [SC0001]	66 (≈ 36.1 µg/mL)	–	8.4
CCCCCOc1cc(N2CC[C@H](C)N(Cc3cccc4c3ccn4CC(=O)N3CCO[C@H](COC)C3)C2=O)ccc1OC [SC0002]	111 (≈ 67.4 µg/mL)	–	8.7
CCCCCOc1cc(N2CC[C@H](C)N(Cc3cccc4c3ccn4CC(=O)N3CCOC(CN(C)C)C3)C2=O)ccc1OC (some centres unmarked) [SC0007]	445 (≈ 276 µg/mL)	–	13.6
CCCCCOc1cc(N2CC[C@H](C)N(Cc3cccc4c3ccn4CC(=O)N(C)C)C2=O)ccc1OC [SC0008]	103 (≈ 53.6 µg/mL)	–	18.5
CCCCCOc1cc(N2CC[C@H](C)N(Cc3cccc4c3ccn4CC(=O)N3CCO[C@@H](COC)C3)C2=O)ccc1OC [SC0009]	167 (≈ 101 µg/mL)	–	18.5
CCCCCOc1cc(N2CC[C@H](C)N(Cc3cccc4c3ccn4CC(=O)N(C)c3cccnc3)C2=O)ccc1OC [SC0011]	43 (≈ 25.1 µg/mL)	–	25.2
CCCCCOc1cc(N2CC(C)CN(Cc3ccc(CC(=O)N(C)C)cc3OC)C2=O)ccc1OC (centres unmarked) [SC0017]	398 (≈ 204 µg/mL)	–	28.2
C=C1CN(Cc2cc(F)ccc2OC)C(=O)N(c2ccc(OC)c(OCCCCC)c2)C1 [SC0060]	< 10	–	22.5
CCCCCOc1cc(N2CC3(CC3)CN(Cc3ccnc4c3ccn4CC(=O)N(C)C)C2=O)ccc1OC [SC0065]	–	–	39
CCCCCOc1cc(N2CC3(CN(C(=O)OCC)C3)CN(Cc3cc(F)ccc3OC)C2=O)ccc1OC [SC0067]	–	–	59
CCCCCOc1cc(N2CC3(CN(Cc4cc(F)ccc4OC)C2=O)CC3(F)F)ccc1OC (centres unmarked) [SC0068]	–	–	77.2
CCCCCOc1cc(N2CC3(COC3)CN(Cc3ccnc4c3ccn4CC(=O)N(C)C)C2=O)ccc1OC [SC0069]	–	–	129
CCCCCOc1cc(N2CC3(CNC3)CN(Cc3cc(F)ccc3OC)C2=O)ccc1OC [SC0070]	–	–	398
CCCCCOc1cc(N2CC3(CN(Cc4cc(F)ccc4OC)C2=O)CN(S(=O)(=O)c2ccc(C)cc2)C3)ccc1OC [SC0071]	–	–	870
CCCCCOc1cc(N2C[C@@H](CO)CN(Cc3cc(F)ccc3OC)C2=O)ccc1OC [SC0072]	–	–	14.2

Further lines, with some results ahead:

solubility kinetic [1] [µM]	Kd [2] [nM]	Structure (SMILES)	IC50 (Human C5) [nM]
30 (≈ 17 µg/mL)	0.15	COc1ccc(N2CCCN(Cc3ccnc4c3c(Cl)cn4CC(=O)N(C)C)C2=O)cc1OCCC[C@H]1C[C@H]1C (racemic) [CU0516]	–
< 10	0.038	COc1ccc(N2CCCN(Cc3cccc4c3c(Cl)cn4CC(=O)N(C)C)C2=O)cc1OCCC[C@H]1C[C@@H]1C (racemic) [CU0524]	–
–	0.254	CCCCCOc1cc(N2CCCN(Cc3ccnc4c3c(Cl)cn4CC(=O)N3CC[C@H](OC)C3)C2=O)ccc1OC [CU0504]	–
–	0.009	CCCCCOc1cc(N2CCCN(Cc3cccc4c3c(I)cn4CC(=O)N(C)C)C2=O)ccc1OC [CU0508]	–
–	0.069	CCCCCOc1cc(N2CCCN(Cc3ccnc4c3c(Cl)cn4CC(=O)N3CCOC3)C2=O)ccc1OC [CU0509]	–
–	0.093	CCCCCOc1cc(N2CCCN(Cc3ccnc4c3c(Cl)cn4CC(=O)N(C)O)C2=O)ccc1OC [CU0514]	–
–	0.291	CCCCCOc1cc(N2CCCN(Cc3ccnc4c3c(Cl)cn4CC(=O)N3CCO[C@@H](CN(C)C)C3)C2=O)ccc1OC [CU0519]	–
–	0.041	CCCCCOc1cc(N2CCCN(Cc3ccnc4c3c(Cl)cn4CC(=O)N(C)OC)C2=O)ccc1OC [CU0527]	–
50 (≈ 29.1 µg/mL)	0.057	CCCCCOc1cc(N2CCCN(Cc3ccnc4c3c(Cl)cn4CC(=O)N(C)CCC#N)C2=O)ccc1OC [CU0528]	–
–	0.051	COc1ccc(N2CCCN(Cc3ccnc4c3c(Cl)cn4CC(=O)N(C)C)C2=O)cc1OCCCC1CC1 [CU0530]	–
–	0.053	CCCCCOc1cc(N2CCCN(Cc3ccnc4c3c(I)cn4CC(=O)N(C)C)C2=O)ccc1OC [CU0535]	–
–	0.039	COc1cc(CNC(=O)c2cocn2)ccc1CN1CCCN(c2ccc(OC)c(OCCCC3CC3)c2)C1=O [CU0537]	–
< 10	0.158	CCCCCOc1cc(N2CCCN(Cc3ccnc4c3c(Cl)cn4CC(=O)NC3COC3)C2=O)ccc1OC [CU0540]	–
256 (≈ 150 µg/mL)	0.016	CCCCCOc1cc(N2CCCN(Cc3cccc4c3c(Br)cn4CC(=O)N(C)C)C2=O)ccc1OC [CU0543]	–
455 (≈ 277 µg/mL)	0.031	COc1cc(CC(=O)N2CCOC(CN(C)C)C2)ccc1CN1CCCN(c2ccc(OC)c(OCCCC3CC3)c2)C1=O (centres unmarked) [CU0550]	–
–	0.14	CCCCCOc1cc(N2CCCN(Cc3ccnc4c3c(Cl)cn4CC(=O)NC3CCOC3)C2=O)ccc1OC (centres unmarked) [CU0561]	–
–	0.024	COc1cc(CNC(=O)c2cocn2)ccc1CN1CCCN(c2ccc(OC)c(OCCCC3CCC3)c2)C1=O [CU0565]	–
< 10	0.118	CCCCCOc1cc(N2CCCN(Cc3ccnc4c3c(Cl)cn4CC(=O)NC3(C)COC3)C2=O)ccc1OC [CU0567]	–
–	0.074	C#CC(C)NC(=O)Cn1cc(Cl)c2c(CN3CCCN(c4ccc(OC)c(OCCCCC)c4)C3=O)ccnc21 (centres unmarked) [CU0572]	–
–	0.221	CCCCCOc1cc(N2CCCN(Cc3ccnc4c3c(Cl)cn4CCO)C2=O)ccc1OC [CU0576]	–
131 (≈ 74.1 µg/mL)	0.302	COc1cc(CC(=O)N2CCOCC2)ccc1CN1CCCN(c2ccc(OC)c(OCCCC3CCC3)c2)C1=O [CU0589]	–
–	0.115	CCCCCOc1cc(N2CCCN(Cc3ccc(CNC(=O)c4ccco4)cc3OC)C2=O)ccc1OC [CU0597]	–
–	0.133	COc1cc(CC(=O)N2CCOCC2)ccc1CN1CCCN(c2ccc(OC)c(OCCCC3CC3(F)F)c2)C1=O (centres unmarked) [CU0601]	–
37 (≈ 21 µg/mL)	0.207	COc1ccc(N2CCCN(Cc3ccnc4c3c(Cl)cn4CC(=O)N(C)C)C2=O)cc1OCCC[C@H]1C[C@@H]1C [CU0610]	–
30 (≈ 16.2 µg/mL)	0.094	COc1cc(CC(=O)N(C)C)ccc1CN1CCCN(c2ccc(OC)c(OCCCCC(C)(C)C)c2)C1=O [CU0638]	–
–	0.041	COc1cc(CNC(=O)OC(C)(C)C)ccc1CN1CCCN(c2ccc(OC)c(OCCCC3CC3)c2)C1=O [CU0669]	–
397 (≈ 213 µg/mL)	0.275	CCCCCOc1cc(N2CCCN(Cc3ccc(CCN4CCCC4(C)C)cc3OC)C2=O)ccc1OC [CU0671]	–
–	0.078	COc1cc(CCN2CCCC2)ccc1CN1CCCN(c2ccc(OC)c(OCCCC3CCC3)c2)C1=O [CU0699]	–
–	0.018	COc1cc(CN)ccc1CN1CCCN(c2ccc(OC)c(OCCCC3CCC3)c2)C1=O [CU0708]	–
–	0.245	COc1cc(CCN2CCCC2)ccc1CN1CCCN(c2ccc(OC)c(OCCCCC3CC3)c2)C1=O [CU0718]	–
